The values that follow are results of earlier work, collected in patent publication US9534000B2, “Cytotoxic benzodiazepine derivatives and methods of preparation” (ImmunoGen, Inc., priority 2011, dated 2017).

The conditions of this series: Phase I clinical evaluation.

For the compound `C=C1C[C@H]2C=Nc3cc(OCCCOc4cc5c(cc4OC)C(=O)N4CC(=C)C[C@H]4C=N5)c(OC)cc3C(=O)N2C1` [SJG-136], the “DNA damage in circulating lymphocytes” value is given as “noted at all doses”.
